Experimental data published in patent publication US20070053984A1, “Topical gels compositions” (priority 2005, published 2007).
Read-outs that look alike come from different tables or passages of the source.

Columns and labels:
[1] = tested on: pseudofolliculitis barbae (PFB); assay: 10-week double blind, placebo-controlled, cross-over clinical trial in PFB; type: in vivo, human; details: 15% in 60% alcohol, 1% ULTREZ 10, 24% water; PFB subjects
Excerpt: PFB efficacy is examined by a 10-week double blind, placebo-controlled, cross-over clinical trial. […] Papules, pustules, and ingrown hairs as defined below are counted and recorded. The primary objectives of this study are: • To determine the efficacy of various NSAID compositions applied at various intervals ranging from every other day to twice per day for five weeks in reducing the signs and symptoms of PFB; and • To determine the safety and tolerability of the various NSAID compositions. Papules, pustules, and ingrown hairs as defined below are counted and recorded. Lesions are counted on the neck, lower left and right cheeks, and jaw line (beard area). The same qualified physician completes the assessment at each visit. Each assessment is performed independent of previous assessments. Subjects have a total of at least 10 (for moderate) of 2 (for mild) follicular papules, pustules, or ingrown hairs at the Baseline Visit to be admitted to the study. Inflammatory and/or nodulocystic lesions, erythema, and hyperpigmentation are assessed according to the following six-point Likert (categorical) scale: • 0 None: […] Rare noninflammatory lesions present (lesions must be resolving and may be hyperpigmented, though not pink/red). Barely perceptible elevation (discernable by touch only). • 2 Mild: Noninflammatory lesions predominate, with few inflammatory papules/pustules. Light red color. Visible but mild elevation. No nodulocystic lesions. • 3 Moderate: Some noninflammatory lesions are present with multiple inflammatory lesions evident. Definite lesion redness and elevation. There may or may not be one small nodulocystic lesion. • 4 Severe: Highly inflammatory lesions predominate. Deep intense red color. Marked dermal swelling and in duration in widespread areas. There may or may not be a few nodulocystic lesions. • 5 Very Severe: Many nodulocystic lesions. Results are recorded in the source document and on the appropriate CRF. The same qualified physician will complete the assessment at each visit. Each assessment should be performed independent of previous assessments. Subjects must have a rating of at least moderate (3) at the Baseline Visit to be admitted to the study. All subjects are asked to evaluate specific PFB symptoms of itch, pain, and shaving discomfort, as well as the overall condition of their PFB at the Baseline, and weekly thereafter (“Subject's Assessment of Symptoms”). […] Global Assessment of Improvement. Subjects are asked to compare the overall condition of their PFB at the week 2, 4, and 6 visits with the overall condition before treatment using the following five-point Likert (categorical) scale: • 2 Overall condition and shaving comfort much better than before treatment. • 1 Overall condition and shaving comfort slightly better than before treatment. • 0 Overall condition and shaving comfort unchanged, same as before treatment. • −1 Overall condition and shaving comfort slightly worse than before treatment. • […] than before treatment. Each assessment is performed independent of previous assessments. The prodrug compositions are tested on PFB subjects according to Example 22 including pharmacokinetic analysis.

skin of minipigs [2] = assay: C14-labeled compositions applied to skin of minipigs, punch biopsies and serum samples; details: 15% in 60% alcohol, 1% ULTREZ 10, 24% water; for Diffusion Rate (1 = high, 5 = low): 0.2 gm per cm^2 skin, biopsies 30 seconds to 24 hours; for Systemic Levels (1 = high, 5 = low): serum samples
[3] = Prodrug (ibuprofen ethyl ester) generation upon storage, HPLC; type: physicochemical; details: compositions similar to 1a, presence or absence of salicylic acid
Experimental: It has been discovered that, in one embodiment, compositions of the present invention, upon storage, result in the generation of a prodrug form of the active ingredient. Such prodrug formation results from reaction of a carboxylic acid group of the active drug with the alcoholic solvent to form an ester linkage.
HPLC analysis was performed on composition la stored for 3 months at 25° C. A new peak (i.e., the prodrug) distinct from the ibuprofen peak was detected within the chromatographic profile.
Next, two grams of composition 1a were diluted in twenty-five milliliters of 50:50) water:acetonitrile. The solution was centrifuged and the supernatant collected or analysis.
Chromatography was conducted as follows: • Pumps: Hewlett Packard Model 1100 Binary Systems • Solvent A: Water • Solvent B: Acetonitrile • Gradient: Start 40% B • Raise to 60% B at 20 minutes • Raise to 90% B at 40 minutes • Flow Rate: 1.0 ml/min • Stationary Phase ZORBAX® CS (4.6×150 mm) • Column Temperature: 25 C • Injection volume […]
Sequential detection was performed by UV absorbance using an HP diode array detector followed by ESI-MS […] a Sciex QSTAR®/Pulsar quadrupole-TOF mass spectrometer operating in either the positive and negative ion modes.

skin of minipigs [4] = details: minipig, in vivo

| Diffusion Rate (1 = high, 5 = low) (skin of minipigs [2]) | Systemic Levels (1 = high, 5 = low) (skin of minipigs [2]) | effect on rate of prodrug formation [3] | Diffusion Rate (1 = high, 5 = low) (skin of minipigs [4]) | Systemic Levels (1 = high, 5 = low) (skin of minipigs [4]) | Molecule | Efficacy (1 = high, 5 = low) [1] |
| --- | --- | --- | --- | --- | --- | --- |
| 2 | 4 |  |  |  | ethylisobutylphenyl-propionate [ibuprofen ethylester] | 2 |
| 3 | 3 |  |  |  | CC(C)OC(=O)C(C)c1cccc(C(=O)c2ccccc2)c1 (stereo not drawn) [ketoprofen isopropyl ester] | 3 |
| 1 | 5 |  |  |  | CC(C)Cc1ccc(C(C)C(=O)OC(C)C)cc1 (stereo not drawn) [ibuprofen isopropyl ester] | 1 |
|  | 2 |  |  |  | CC(C(=O)O)c1cccc(C(=O)c2ccccc2)c1 (stereo not drawn) [ketoprofen, reference compound] | 5 |
|  |  | increases the rate of prodrug formation |  |  | O=C(O)c1ccccc1O [salicylic acid] |  |
|  |  |  | 3 | 3 | CCOC(=O)C(C)c1cccc(C(=O)c2ccccc2)c1 (stereo not drawn) [ketoprofen ethylester] | 3 |
